Data reported in ChEMBL document CHEMBL1153945 (Bioorg Med Chem, 2009).

Tests used:
[1] = molecular target: T1, Nitric oxide synthase 3 (Bos taurus, UniProt P29473)
T1 sequence (P29473 whole entry): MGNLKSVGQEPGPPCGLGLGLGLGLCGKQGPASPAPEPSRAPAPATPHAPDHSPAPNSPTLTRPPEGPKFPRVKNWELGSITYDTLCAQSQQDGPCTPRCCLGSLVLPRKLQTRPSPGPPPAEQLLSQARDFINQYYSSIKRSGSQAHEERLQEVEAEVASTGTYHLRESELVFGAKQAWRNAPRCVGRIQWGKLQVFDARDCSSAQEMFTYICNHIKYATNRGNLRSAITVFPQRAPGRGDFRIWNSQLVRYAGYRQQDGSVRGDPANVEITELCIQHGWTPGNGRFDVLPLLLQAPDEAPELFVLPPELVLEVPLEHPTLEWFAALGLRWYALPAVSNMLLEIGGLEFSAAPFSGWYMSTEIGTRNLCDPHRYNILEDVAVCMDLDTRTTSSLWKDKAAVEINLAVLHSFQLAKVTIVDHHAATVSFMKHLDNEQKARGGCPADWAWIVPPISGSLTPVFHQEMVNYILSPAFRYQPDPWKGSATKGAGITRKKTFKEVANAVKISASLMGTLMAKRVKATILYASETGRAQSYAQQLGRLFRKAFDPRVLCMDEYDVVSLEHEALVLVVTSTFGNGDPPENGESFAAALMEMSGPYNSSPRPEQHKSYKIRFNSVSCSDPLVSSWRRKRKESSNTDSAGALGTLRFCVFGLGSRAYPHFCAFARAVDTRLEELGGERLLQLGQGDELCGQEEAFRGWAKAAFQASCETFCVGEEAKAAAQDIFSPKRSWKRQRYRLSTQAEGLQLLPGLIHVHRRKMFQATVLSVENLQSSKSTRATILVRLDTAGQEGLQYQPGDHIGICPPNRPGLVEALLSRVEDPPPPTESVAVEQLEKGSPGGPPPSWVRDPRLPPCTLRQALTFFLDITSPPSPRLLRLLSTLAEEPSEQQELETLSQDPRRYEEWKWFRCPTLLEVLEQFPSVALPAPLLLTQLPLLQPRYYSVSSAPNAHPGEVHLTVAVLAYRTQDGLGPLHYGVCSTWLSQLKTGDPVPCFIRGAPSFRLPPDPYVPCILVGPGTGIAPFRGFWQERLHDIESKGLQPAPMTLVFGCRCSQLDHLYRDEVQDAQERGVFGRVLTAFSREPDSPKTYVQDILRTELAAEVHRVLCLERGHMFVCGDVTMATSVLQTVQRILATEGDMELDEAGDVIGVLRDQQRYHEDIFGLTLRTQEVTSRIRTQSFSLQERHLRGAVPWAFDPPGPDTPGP
Description: Inhibition of bovine recombinant eNOS expressed in Escherichia coli assessed as nitric oxide formation by hemoglobin capture assay

[2] = molecular target: T2, Nitric oxide synthase, inducible (Mus musculus, UniProt P29477)
T2 sequence (P29477 whole entry): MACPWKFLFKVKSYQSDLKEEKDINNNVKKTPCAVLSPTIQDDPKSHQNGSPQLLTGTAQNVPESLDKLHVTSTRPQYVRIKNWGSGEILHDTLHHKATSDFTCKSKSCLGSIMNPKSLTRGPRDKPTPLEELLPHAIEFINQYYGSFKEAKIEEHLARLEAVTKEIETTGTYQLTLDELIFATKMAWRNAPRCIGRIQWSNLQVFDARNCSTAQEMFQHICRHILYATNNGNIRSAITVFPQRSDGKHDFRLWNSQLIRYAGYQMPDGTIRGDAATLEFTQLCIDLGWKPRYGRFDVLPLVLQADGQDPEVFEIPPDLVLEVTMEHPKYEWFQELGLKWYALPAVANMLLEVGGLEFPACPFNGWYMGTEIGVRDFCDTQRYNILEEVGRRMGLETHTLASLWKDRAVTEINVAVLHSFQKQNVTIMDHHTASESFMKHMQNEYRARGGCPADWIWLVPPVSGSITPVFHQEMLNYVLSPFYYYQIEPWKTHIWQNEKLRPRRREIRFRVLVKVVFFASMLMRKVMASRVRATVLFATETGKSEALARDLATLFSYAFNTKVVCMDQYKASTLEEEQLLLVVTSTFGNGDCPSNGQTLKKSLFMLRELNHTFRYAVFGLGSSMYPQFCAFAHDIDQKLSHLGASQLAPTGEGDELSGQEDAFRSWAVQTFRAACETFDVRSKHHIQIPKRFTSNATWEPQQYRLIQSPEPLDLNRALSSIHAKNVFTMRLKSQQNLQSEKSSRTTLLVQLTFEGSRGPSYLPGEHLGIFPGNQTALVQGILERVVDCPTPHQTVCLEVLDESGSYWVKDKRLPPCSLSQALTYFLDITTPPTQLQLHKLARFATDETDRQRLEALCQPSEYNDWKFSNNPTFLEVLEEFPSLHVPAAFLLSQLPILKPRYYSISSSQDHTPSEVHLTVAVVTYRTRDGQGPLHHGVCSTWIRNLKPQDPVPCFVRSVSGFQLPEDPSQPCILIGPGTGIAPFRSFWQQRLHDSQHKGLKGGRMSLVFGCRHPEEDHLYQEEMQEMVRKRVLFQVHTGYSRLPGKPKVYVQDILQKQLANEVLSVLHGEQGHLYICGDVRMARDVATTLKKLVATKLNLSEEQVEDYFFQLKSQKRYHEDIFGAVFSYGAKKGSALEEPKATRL
Description: Inhibition of mouse recombinant iNOS expressed in Escherichia coli assessed as nitric oxide formation by hemoglobin capture assay

[3] = molecular target: Nitric oxide synthase 1 (Rattus norvegicus, UniProt P29476)
Chain of Nitric oxide synthase 1 (P29476 whole entry): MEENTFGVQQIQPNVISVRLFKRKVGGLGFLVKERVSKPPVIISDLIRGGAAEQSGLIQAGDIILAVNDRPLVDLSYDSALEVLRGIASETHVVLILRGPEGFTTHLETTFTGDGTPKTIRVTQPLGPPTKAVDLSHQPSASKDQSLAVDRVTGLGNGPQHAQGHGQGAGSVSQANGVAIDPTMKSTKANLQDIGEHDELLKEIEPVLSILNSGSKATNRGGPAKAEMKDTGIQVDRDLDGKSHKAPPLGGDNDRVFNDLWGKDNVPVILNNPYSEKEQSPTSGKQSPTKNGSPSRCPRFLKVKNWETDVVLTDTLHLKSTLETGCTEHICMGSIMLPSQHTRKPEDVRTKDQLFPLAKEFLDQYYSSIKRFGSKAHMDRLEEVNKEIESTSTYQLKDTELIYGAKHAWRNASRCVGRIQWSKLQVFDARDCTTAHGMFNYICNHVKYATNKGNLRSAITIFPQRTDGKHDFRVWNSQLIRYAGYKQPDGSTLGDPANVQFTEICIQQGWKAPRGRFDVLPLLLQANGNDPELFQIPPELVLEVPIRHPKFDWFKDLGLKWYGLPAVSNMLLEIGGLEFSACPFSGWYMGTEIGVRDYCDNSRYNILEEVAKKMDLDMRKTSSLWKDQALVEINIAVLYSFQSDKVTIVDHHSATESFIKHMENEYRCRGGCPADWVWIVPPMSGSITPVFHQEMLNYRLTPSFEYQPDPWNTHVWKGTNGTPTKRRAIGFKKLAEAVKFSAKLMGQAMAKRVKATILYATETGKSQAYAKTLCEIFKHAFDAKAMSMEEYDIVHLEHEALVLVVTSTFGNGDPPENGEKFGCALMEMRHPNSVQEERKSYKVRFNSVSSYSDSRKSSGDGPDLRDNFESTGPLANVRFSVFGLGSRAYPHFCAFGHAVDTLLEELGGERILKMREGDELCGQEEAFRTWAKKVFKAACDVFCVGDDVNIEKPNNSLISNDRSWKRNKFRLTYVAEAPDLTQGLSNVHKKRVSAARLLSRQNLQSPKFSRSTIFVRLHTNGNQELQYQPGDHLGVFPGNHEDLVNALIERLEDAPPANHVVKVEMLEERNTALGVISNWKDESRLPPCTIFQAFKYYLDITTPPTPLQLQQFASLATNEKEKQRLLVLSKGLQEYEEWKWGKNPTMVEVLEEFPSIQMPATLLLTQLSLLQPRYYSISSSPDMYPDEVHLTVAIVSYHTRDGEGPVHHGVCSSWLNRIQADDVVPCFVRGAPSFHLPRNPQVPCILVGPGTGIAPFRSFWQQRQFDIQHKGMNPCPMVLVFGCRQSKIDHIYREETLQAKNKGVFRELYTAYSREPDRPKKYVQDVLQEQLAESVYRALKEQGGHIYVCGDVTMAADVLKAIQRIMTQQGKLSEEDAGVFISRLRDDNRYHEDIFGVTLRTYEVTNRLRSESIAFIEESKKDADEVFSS
Description: Inhibition of rat recombinant nNOS expressed in Escherichia coli assessed as nitric oxide formation by hemoglobin capture assay

Compound | Ki [1] [µM] | Ki [2] [µM] | Ki [3] [µM]
Cc1cc(N)nc(C[C@H]2CNC[C@H]2OCC(=O)NCCc2cccc(F)c2)c1 (racemic) | 145 | – | –
Cc1cc(N)nc(C[C@H]2CNC[C@H]2NCCOCCc2cccc(F)c2)c1 (racemic) | 33 | 4 | 0.4
Cc1cc(N)nc(C[C@H]2CNC[C@H]2OCCNC(=O)Cc2cccc(F)c2)c1 (racemic) | 107 | – | 5
Cc1cc(N)nc(C[C@H]2CNC[C@H]2NC(=O)CNCCc2cccc(F)c2)c1 (racemic) | – | – | 0.053
